pEC50: −log10 of the molar value.
Target: T1, human GPR119 (Homo sapiens, UniProt Q8TDV5)
T1 construct: expressed in transfected cells
T1 sequence (Q8TDV5 1-335): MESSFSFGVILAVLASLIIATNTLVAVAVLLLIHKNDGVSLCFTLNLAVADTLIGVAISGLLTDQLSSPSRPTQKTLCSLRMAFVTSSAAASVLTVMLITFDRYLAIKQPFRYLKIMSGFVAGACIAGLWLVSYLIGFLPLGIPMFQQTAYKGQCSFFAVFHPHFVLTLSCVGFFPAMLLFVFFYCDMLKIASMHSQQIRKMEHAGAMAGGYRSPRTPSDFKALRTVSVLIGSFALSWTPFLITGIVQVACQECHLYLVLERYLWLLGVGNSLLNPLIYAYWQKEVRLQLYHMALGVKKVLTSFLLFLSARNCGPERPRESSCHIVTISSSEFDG
Experiment: Functional cellular assay measuring GPR119-mediated cAMP release (HTRF) in HEK-293 cells stably expressing recombinant human GPR119
Type: cell-based
Conditions: cAMP response, cell line expressing human GPR119, 30 minutes at room temperature
Method: Functional Cellular Assays Measuring GPR119-Mediated cAMP Release
Compounds of the invention, which are agonists of GPR119, were characterized by functional assays measuring the cAMP response of HEK-293 cell lines stably expressing recombinant GPR119 from man, mouse or rat, or by using a hamster cell line HIT-T15 expressing GPR119 endogenously. The cAMP content was determined using a kit based on homogenous time-resolved fluorescence (HTRF) from Cisbio Corp. (cat. no. 62AM4PEC). For preparation, cells were split into T175 culture flasks and grown to near confluency in medium (DMEM/10% FCS for HEK-293 cells, and F-12K medium/10% horse serum/2.5% FCS for HIT-T15 cells, respectively). Medium was then removed and cells washed with PBS lacking calcium and magnesium ions, followed by proteinase treatment with accutase (Sigma-Aldrich, cat. no. A6964). Detached cells were washed and resuspended in assay buffer (1×HBSS; 20 mM HEPES, 0.1% BSA, 2 mM IBMX) and cellular density determined. They were then diluted to 400000 cells/mL and 25 μL-aliquots dispensed to the wells of 96-well plates. For measurement, 25 μL of test compound in assay buffer was added and incubated for 30 minutes at room temperature. After addition of HTRF reagents diluted in lysis buffer, the plates were incubated for 1 hour, followed by measuring the fluorescence ratio at 665 vs. 620 nm. Potency of the agonists was quantified by determining the concentrations that caused 50% of the maximal response/activation (EC50). See Table 7 for exemplary data obtained using the cell line expressing human GPR119.

With `O=C(CN1Cc2c(F)cc(N3CC[C@@H](Oc4ccc(OCC5CC5)nc4)C3=O)cc2C1=O)N1CCC(O)CC1` [Example 4-22, 6-[(3R)-3-[[6-(cyclopropylmethoxy)-3-pyridyl]oxy]-2-oxo-pyrrolidin-1-yl]-4-fluoro-2-[2-(4-hydroxy-1-piperidyl)-2-oxo-ethyl]isoindolin-1-one] as the compound, how does the pEC50 read?
The pEC50 was 7.06.

How did the pEC50 turn out when `CN(C)C(=O)CN1Cc2ccc(N3CC[C@@H](Oc4ccc(C(=O)N5CCCC5)cc4)C3=O)cc2C1=O` [Example 2-35, N,N-dimethyl-2-[1-oxo-6-[(3R)-2-oxo-3-[4-(pyrrolidine-1-carbonyl)phenoxy]pyrrolidin-1-yl]isoindolin-2-yl]acetamide] was run?
The pEC50 was 5.06.

`CN(C)C(=O)CN1Cc2ccc(N3CC[C@@H](Oc4ccc(OC(F)(F)F)c(Cl)c4)C3=O)cc2C1=O` [Example 2-41, 2-[6-[(3R)-3-[3-chloro-4-(trifluoromethoxy)phenoxy]-2-oxo-pyrrolidin-1-yl]-1-oxo-isoindolin-2-yl]-N,N-dimethyl-acetamide] was tested. Which pEC50 did it give?
Its pEC50 is 6.33.

With `CN(C)C(=O)CN1Cc2ccc(N3CC[C@@H](Oc4ccc(Oc5ccc(F)cc5)nc4)C3=O)cc2C1=O` [Example 2-14, 2-[6-[(3R)-3-[[6-(4-fluorophenoxy)-3-pyridyl]oxy]-2-oxo-pyrrolidin-1-yl]-1-oxo-isoindolin-2-yl]-N,N-dimethyl-acetamide] as the compound, how does the pEC50 read?
The pEC50 was 7.07.

With `CCOc1ccc(O[C@@H]2CCN(c3cc(F)c4c(c3)C(=O)N(CC(=O)NCCO)C4)C2=O)cn1` [Example 4-15, 2-[6-[(3R)-3-[(6-ethoxy-3-pyridyl)oxy]-2-oxo-pyrrolidin-1-yl]-4-fluoro-1-oxo-isoindolin-2-yl]-N-(2-hydroxyethyl)acetamide] as the compound, how does the pEC50 read?
The pEC50 was 6.26.

`CCOc1ccc(O[C@@H]2CCN(c3cc(F)c4c(c3)C(=O)N(CC(N)=O)C4)C2=O)cn1` [Example 4-16, 2-[6-[(3R)-3-[(6-ethoxy-3-pyridyl)oxy]-2-oxo-pyrrolidin-1-yl]-4-fluoro-1-oxo-isoindolin-2-yl]acetamide] was tested. Which pEC50 did it give?
The pEC50 was 6.57.

With `Cc1cc(O[C@@H]2CCN(c3ccc4c(c3)C(=O)N(CC(=O)N(C)C)C4)C2=O)cnc1OCC1CC1` [Example 2-07, 2-[6-[(3R)-3-[[6-(cyclopropylmethoxy)-5-methyl-3-pyridyl]oxy]-2-oxo-pyrrolidin-1-yl]-1-oxo-isoindolin-2-yl]-N,N-dimethyl-acetamide] as the compound, how does the pEC50 read?
The pEC50 was 6.94.

How did the pEC50 turn out when `CN(C)C(=O)CN1Cc2ccc(N3CC[C@@H](Oc4ccc(N5CCCC5=O)cc4)C3=O)cc2C1=O` [Example 2-28, N,N-dimethyl-2-[1-oxo-6-[(3R)-2-oxo-3-[4-(2-oxopyrrolidin-1-yl)phenoxy]pyrrolidin-1-yl]isoindolin-2-yl]acetamide] was run?
The pEC50 was 5.83.

`CC1c2ccc(N3CC[C@@H](Oc4ccc(OCC5CC5)nc4)C3=O)cc2C(=O)N1CC(=O)N(C)C` (stereo partly drawn) [Example 1-13, 2-[5-[(3R)-3-[[6-(cyclopropylmethoxy)-3-pyridyl]oxy]-2-oxo-pyrrolidin-1-yl]-1-methyl-3-oxo-isoindolin-2-yl]-N,N-dimethyl-acetamide] was tested. Which pEC50 did it give?
Its pEC50 is 6.63.

How did the pEC50 turn out when `C[S+]([O-])CN1Cc2ccc(N3CC[C@@H](Oc4ccc(OCC(F)(F)F)nc4)C3=O)cc2C1=O` (stereo partly drawn) [Example 1-54, 2-(methylsulfinylmethyl)-6-[(3R)-2-oxo-3-[[6-(2,2,2-trifluoroethoxy)-3-pyridyl]oxy]pyrrolidin-1-yl]isoindolin-1-one] was run?
The pEC50 was 7.18.

`CCOC(=O)CN1Cc2ccc(N3CC[C@@H](Oc4ccc(OCC5CC5)nc4)C3=O)cc2C1=O` [Example 1-29, ethyl 2-[6-[(3R)-3-[[6-(cyclopropylmethoxy)-3-pyridyl]oxy]-2-oxo-pyrrolidin-1-yl]-1-oxo-isoindolin-2-yl]acetate] was tested. Which pEC50 did it give?
Its pEC50 is 7.82.

With `C[S+]([O-])CN1Cc2ncc(N3CC[C@@H](Oc4ccc(C(=O)C5CC5)nc4)C3=O)cc2C1=O` (stereo partly drawn) [Example 1-57, 3-[(3R)-3-[[6-(cyclopropanecarbonyl)-3-pyridyl]oxy]-2-oxo-pyrrolidin-1-yl]-6-(methylsulfinylmethyl)-7H-pyrrolo[3,4-b]pyridin-5-one] as the compound, how does the pEC50 read?
The pEC50 was 5.95.

`COC(=O)CNC(=O)CN1Cc2ccc(N3CC[C@@H](Oc4ccc(OCC5CC5)nc4)C3=O)cc2C1=O` [Example 4-31, methyl 2-[[2-[6-[(3R)-3-[[6-(cyclopropylmethoxy)-3-pyridyl]oxy]-2-oxo-pyrrolidin-1-yl]-1-oxo-isoindolin-2-yl]acetyl]amino]acetate] was tested. Which pEC50 did it give?
Its pEC50 is 6.82.

`CCCN1Cc2ccc(N3CC[C@@H](Oc4ccc(OCC5CC5)nc4)C3=O)cc2C1=O` [Example 1-08, 6-[(3R)-3-[[6-(cyclopropylmethoxy)-3-pyridyl]oxy]-2-oxo-pyrrolidin-1-yl]-2-propyl-isoindolin-1-one] was tested. Which pEC50 did it give?
Its pEC50 is 5.98.

How did the pEC50 turn out when `CCOc1ccc(O[C@@H]2CCN(c3cc(F)c4c(c3)C(=O)N(CC(=O)N(CC)CC)C4)C2=O)cn1` [Example 4-14, 2-[6-[(3R)-3-[(6-ethoxy-3-pyridyl)oxy]-2-oxo-pyrrolidin-1-yl]-4-fluoro-1-oxo-isoindolin-2-yl]-N,N-diethyl-acetamide] was run?
Its pEC50 is 6.54.

`O=C(CN1Cc2ccc(N3CC[C@@H](Oc4ccc(OCC(F)(F)F)nc4)C3=O)cc2C1=O)N1CC(O)C1` [Example 1-47, 2-[2-(3-hydroxyazetidin-1-yl)-2-oxo-ethyl]-6-[(3R)-2-oxo-3-[[6-(2,2,2-trifluoroethoxy)-3-pyridyl]oxy]pyrrolidin-1-yl]isoindolin-1-one] was tested. Which pEC50 did it give?
Its pEC50 is 6.66.

`O=C(CN1Cc2c(F)cc(N3CC[C@@H](Oc4ccc(OCCC5CC5)nc4)C3=O)cc2C1=O)NCCO` [Example 4-29, 2-[6-[(3R)-3-[[6-(2-cyclopropylethoxy)-3-pyridyl]oxy]-2-oxo-pyrrolidin-1-yl]-4-fluoro-1-oxo-isoindolin-2-yl]-N-(2-hydroxyethyl)acetamide] was tested. Which pEC50 did it give?
The pEC50 was 6.80.

`CN(C)C(=O)CN1Cc2ccc(N3CC[C@@H](Oc4ccc(OCC5CC5)nc4)C3=O)cc2C1=O` [Example 1-39, 2-[6-[(3R)-3-[[6-(cyclopropylmethoxy)-3-pyridyl]oxy]-2-oxo-pyrrolidin-1-yl]-1-oxo-isoindolin-2-yl]-N,N-dimethyl-acetamide] was tested. Which pEC50 did it give?
The pEC50 was 7.22.

With `CN(C)C(=O)CN1Cc2ccc(N3CC[C@@H](Oc4ccc(F)nc4)C3=O)cc2C1=O` [Example 2-17, 2-[6-[(3R)-3-[(6-fluoro-3-pyridyl)oxy]-2-oxo-pyrrolidin-1-yl]-1-oxo-isoindolin-2-yl]-N,N-dimethyl-acetamide] as the compound, how does the pEC50 read?
The pEC50 was 5.03.

`C[S@@+]([O-])CN1Cc2ncc(N3CC[C@@H](Oc4ccc(OCC(F)(F)F)nc4)C3=O)cc2C1=O` [Example 1-69, 6-((R)-methanesulfinylmethyl)-3-{(R)-2-oxo-3-[6-(2,2,2-trifluoro-ethoxy)-pyridin-3-yloxy]-pyrrolidin-1-yl}-6,7-dihydro-pyrrolo[3,4-b]pyridin-5-one] was tested. Which pEC50 did it give?
Its pEC50 is 6.88.

With `Cc1cnc(-c2ccc(O[C@@H]3CCN(c4ccc5c(c4)C(=O)N(CC(=O)N(C)C)C5)C3=O)cn2)s1` [Example 2-60, N,N-dimethyl-2-[6-[(3R)-3-[[6-(5-methylthiazol-2-yl)-3-pyridyl]oxy]-2-oxo-pyrrolidin-1-yl]-1-oxo-isoindolin-2-yl]acetamide] as the compound, how does the pEC50 read?
Its pEC50 is 7.01.

How did the pEC50 turn out when `O=C(O)CN1Cc2ccc(N3CC[C@@H](Oc4ccc(OCC(F)(F)F)nc4)C3=O)cc2C1=O` [Example 3-05, 2-[1-oxo-6-[(3R)-2-oxo-3-[[6-(2,2,2-trifluoroethoxy)-3-pyridyl]oxy]pyrrolidin-1-yl]isoindolin-2-yl]acetic acid] was run?
Its pEC50 is 6.26.

`CN(C)C(=O)CN1Cc2ncc(N3CC[C@@H](Oc4ccc(OCC5CC5)nc4)C3=O)cc2C1=O` [Example 1-11, 2-[3-[(3R)-3-[[6-(cyclopropylmethoxy)-3-pyridyl]oxy]-2-oxo-pyrrolidin-1-yl]-5-oxo-7H-pyrrolo[3,4-b]pyridin-6-yl]-N,N-dimethyl-acetamide] was tested. Which pEC50 did it give?
Its pEC50 is 6.69.

How did the pEC50 turn out when `Cc1nc(-c2ccc(O[C@@H]3CCN(c4ccc5c(c4)C(=O)N(CC(=O)N(C)C)C5)C3=O)cc2)no1` [Example 2-32, N,N-dimethyl-2-[6-[(3R)-3-[4-(5-methyl-1,2,4-oxadiazol-3-yl)phenoxy]-2-oxo-pyrrolidin-1-yl]-1-oxo-isoindolin-2-yl]acetamide] was run?
The pEC50 was 6.57.

With `CN(C)C(=O)CN1Cc2ccc(N3CC[C@@H](Oc4ccc(SCC5CC5)nc4)C3=O)cc2C1=O` [Example 2-19, 2-[6-[(3R)-3-[[6-(cyclopropylmethylsulfanyl)-3-pyridyl]oxy]-2-oxo-pyrrolidin-1-yl]-1-oxo-isoindolin-2-yl]-N,N-dimethyl-acetamide] as the compound, how does the pEC50 read?
Its pEC50 is 7.33.

`COC(=O)CC1c2ccc(N3CC[C@@H](Oc4ccc(OCC5CC5)nc4)C3=O)cc2C(=O)N1C` (stereo partly drawn) [Example 1-05, methyl 2-[5-[(3R)-3-[[6-(cyclopropylmethoxy)-3-pyridyl]oxy]-2-oxo-pyrrolidin-1-yl]-2-methyl-3-oxo-isoindolin-1-yl]acetate] was tested. Which pEC50 did it give?
Its pEC50 is 6.50.

Reference: patent publication US9908868B2, “Isoindolinone compounds as GPR119 modulators for the treatment of diabetes, obesity, dyslipidemia and related disorders” (SANOFI, priority 2014, dated 2018)
